Reference: paper doi:10.1101/2024.08.19.608619, “Discovery of potent SARS-CoV-2 nsp3 macrodomain inhibitors uncovers lack of translation to cellular antiviral response” (bioRxiv, 2024)
Converted amounts (≈) assume the structure as drawn. “And” between values parts separate entries of the source, which are not always exact repeats. Identical values can stand only once. Like-named read-outs stand apart in the source and are kept apart here.

Tests used:
[1] = Permeability Papp (AB) MDR1/MDCKII; details: In vitro MDR1-MDCKII permeability; for papp_a_to_b_mean: A to B; for perc_recovery_a_to_b_mean: recovery A to B
[2] = LogD; details: pH 7.4
[3] = In vitro kinetic solubility; details: In vitro kinetic solubility, ph 7.4
[4] = Hepatic microsomal stability, MLM; type: in vitro ADME
[5] = Hepatic microsomal stability, HLM; type: in vitro ADME, human; details: In vitro human liver microsomal stability; for perc_remaining_no_cofactor: no cofactor
[6] = target: T1, SARS-CoV-2 nsp3-mac1 (Severe acute respiratory syndrome coronavirus 2, UniProt P0DTD1); experiment: biochemical; set-up: SARS-CoV-2 nsp3 macrodomain TR-FRET single point, per cent inhibition, n=2
[7] = target: T1, SARS-CoV-2 nsp3-mac1; experiment: biochemical; type: biochemical; details: SARS-CoV-2 nsp3 macrodomain TR-FRET single point
[8] = In vitro mouse liver microsomal stability
[9] = In vitro mouse liver microsomal stability, no cofactor
[10] = In vitro mouse liver microsomal stability; no cofactor
[11] = read-out: perc_inhibition_mean, batch_name=ASAP-0000468-001
[12] = read-out: perc_inhibition_mean, batch_name=ASAP-0000469-001
[13] = read-out: perc_inhibition_mean, batch_name=ASAP-0000470-001
[14] = read-out: perc_inhibition_mean, batch_name=ASAP-0000471-001
[15] = read-out: perc_inhibition_mean, batch_name=ASAP-0000472-001
[16] = read-out: perc_inhibition_mean, batch_name=ASAP-0000473-001
[17] = read-out: perc_inhibition_mean, batch_name=ASAP-0000474-001
[18] = read-out: perc_inhibition_mean, batch_name=ASAP-0000475-001
[19] = read-out: perc_inhibition_mean, batch_name=ASAP-0000476-001
[20] = read-out: perc_inhibition_mean, batch_name=ASAP-0000477-001
[21] = read-out: perc_inhibition_mean, batch_name=ASAP-0000478-001
[22] = read-out: perc_inhibition_mean, batch_name=ASAP-0000479-001
[23] = read-out: perc_inhibition_mean, batch_name=ASAP-0000480-001
[24] = read-out: perc_inhibition_mean, batch_name=ASAP-0000481-001
[25] = read-out: perc_inhibition_mean, batch_name=ASAP-0000482-001

## CC(C(=O)O)C(NC(=O)c1ncnc2[nH]ccc12)c1ccc(Br)cc1 (mixture of isomers) [ASAP-0008445]
[1]; mean
  papp_a_to_b_mean: 1.4 ×10⁻⁶ cm/s
  perc_recovery_a_to_b_mean: 93.4%
[2]; In vitro LogD
  logd: 0.5
[3]
  solubility_mean: 386 µM
[4]; [8]
  clint: 4.0 µL/min/mg
  perc_remaining: 94.0%
  t_half: 433.2 min
[4]; [9]
  perc_remaining_no_cofactor: 109.0%
[5]
  clint: 5.0 µL/min/mg
  perc_remaining: 103.0%
  t_half: 338.5 min
  perc_remaining_no_cofactor: 110.0%

## COc1ccc(C(NC(=O)c2ncnc3[nH]ccc23)C(C)c2nnn[nH]2)cc1 (mixture of isomers) [ASAP-0010744]
[1]; no inhibitor
  papp_a_to_b_mean: 1.13 ×10⁻⁶ cm/s
  perc_recovery_a_to_b_mean: 93.6%
[2]; In vitro LogD
  logd: 0.0
[3]
  solubility_mean: ≥ 400 µM
[4]; [8]
  clint: 1.0 µL/min/mg
  perc_remaining: 99.0%
  t_half: 2882.2 min
[4]; [9]
  perc_remaining_no_cofactor: 92.0%
[5]
  clint: 2.0 µL/min/mg
  perc_remaining: 92.0%
  t_half: 798.7 min
  perc_remaining_no_cofactor: 103.0%

## COc1ccc2c(c1)CCN(c1ncnc3[nH]ccc13)[C@H]2C(C)C (racemic) [ASAP-0000502]
[1]; mean
  papp_a_to_b_mean: 7.0 ×10⁻⁶ cm/s
  perc_recovery_a_to_b_mean: 32.0%
[2]; In vitro LogD
  logd: 4.33
[3]
  solubility_mean: 14 µM (≈ 4.51 µg/mL)
[4]; [8]
  clint: 321.0 µL/min/mg
  perc_remaining: 1.0%
  t_half: 5.2 min
[4]; [10]
  perc_remaining_no_cofactor: 83.0%
[5]
  clint: 60.0 µL/min/mg
  perc_remaining: 38.0%
  t_half: 27.8 min
  perc_remaining_no_cofactor: 103.0%

## COc1ccc([C@H](CC(=O)O)NC(=O)c2ncnc3[nH]ccc23)cc1 (racemic) [ASAP-0000591]
[1]; mean
  papp_a_to_b_mean: 1.7 ×10⁻⁶ cm/s
  perc_recovery_a_to_b_mean: 90.0%
[2]; In vitro LogD
  logd: -0.38
[3]
  solubility_mean: ≥ 400 µM
[4]; [8]
  clint: 2.0 µL/min/mg
  perc_remaining: 94.0%
  t_half: 686.4 min
[4]; [10]
  perc_remaining_no_cofactor: 96.0%
[5]
  clint: 7.0 µL/min/mg
  perc_remaining: 87.0%
  t_half: 240.4 min
  perc_remaining_no_cofactor: 88.0%

## Cn1ncc(-c2cc3c(N[C@H](c4ccc5c(n4)OCCO5)C(C)(C)C)ncnc3[nH]2)c1C#N (racemic) [ASAP-0008645]
[1]; mean
  papp_a_to_b_mean: 9.87 ×10⁻⁶ cm/s and 13.5 ×10⁻⁶ cm/s
  perc_recovery_a_to_b_mean: 73.4% and 58.4%
[3]
  solubility_mean: 25 µM and 24 µM
[4]; [8]
  clint: 188.0 µL/min/mg and 209.0 µL/min/mg
  perc_remaining: 5.0% and 4.0%
  t_half: 8.9 min and 8.0 min
[4]; [9]
  perc_remaining_no_cofactor: 106.0%
[4]; [10]
  perc_remaining_no_cofactor: 101.0%
[5]
  clint: 70.0 µL/min/mg and 81.0 µL/min/mg
  perc_remaining: 30.0% and 27.0%
  t_half: 23.9 min and 20.6 min
  perc_remaining_no_cofactor: 91.0% and 108.0%

## O=C(O)C[C@H](NC(=O)c1ncnc2[nH]ccc12)c1ccc(Br)cc1 [ASAP-0000136]
[2]; In vitro LogD
  logd: 0.22

## Cc1nn(-c2ccccc2)c(C)c1[C@H]1COCCN1c1ncnc2[nH]ccc12 [ASAP-0000468]
[6]; [11]
  inhibition at 49.75 µM: -0.042%
  inhibition at 99.5 µM: -4.22%
[7]; concentration 49.75 uM
  perc_inhibition_mean: -0.042%
[7]; concentration 99.5 uM
  perc_inhibition_mean: -4.216%

## O=C(N[C@H](Cn1cnc2cc(F)c(F)cc21)C(=O)O)c1ncnc2[nH]ccc12 [ASAP-0000469]
[6]; [12]
  inhibition at 49.75 µM: -2.04%
  inhibition at 99.5 µM: 8.39%
[7]; concentration 49.75 uM
  perc_inhibition_mean: -2.035%
[7]; concentration 99.5 uM
  perc_inhibition_mean: 8.395%

## C[C@@H](Nc1ncnc2[nH]ccc12)c1cnn(Cc2ccccc2)c1 [ASAP-0000470]
[6]; [13]
  inhibition at 49.75 µM: -4.11%
  inhibition at 99.5 µM: 3.18%
[7]; concentration 49.75 uM
  perc_inhibition_mean: -4.105%
[7]; concentration 99.5 uM
  perc_inhibition_mean: 3.18%

## CC(C)[C@@H](Nc1ncnc2[nH]ccc12)c1nc2ccccc2[nH]1 [ASAP-0000471]
[6]; [14]
  inhibition at 49.75 µM: 37.3%
  inhibition at 99.5 µM: 52.5%
[7]; concentration 49.75 uM
  perc_inhibition_mean: 37.305%
[7]; concentration 99.5 uM
  perc_inhibition_mean: 52.508%

## c1nc(N[C@@H]2CCCc3c2cnn3C2CCCC2)c2cc[nH]c2n1 [ASAP-0000472]
[6]; [15]
  inhibition at 49.75 µM: 0.884%
  inhibition at 99.5 µM: 14.3%
[7]; concentration 49.75 uM
  perc_inhibition_mean: 0.884%
[7]; concentration 99.5 uM
  perc_inhibition_mean: 14.273%

## C[C@@H](Nc1ncnc2[nH]ccc12)c1cnn(CC2CCC2)c1 [ASAP-0000473]
[6]; [16]
  inhibition at 49.75 µM: -0.451%
  inhibition at 99.5 µM: 4.9%
[7]; concentration 49.75 uM
  perc_inhibition_mean: -0.451%
[7]; concentration 99.5 uM
  perc_inhibition_mean: 4.9%

## Cn1cc([C@H]2CCCCN2c2ncnc3[nH]ccc23)cn1 [ASAP-0000474]
[6]; [17]
  inhibition at 49.75 µM: 6.39%
  inhibition at 99.5 µM: 8.32%
[7]; concentration 49.75 uM
  perc_inhibition_mean: 6.392%
[7]; concentration 99.5 uM
  perc_inhibition_mean: 8.316%

## CC(C)[C@@H](CCN(C)C(=O)c1cc2c(s1)CC[C@H](C)C2)Nc1ncnc2[nH]ccc12 [ASAP-0000475]
[6]; [18]
  inhibition at 49.75 µM: -9.68%
  inhibition at 99.5 µM: -29.7%
[7]; concentration 49.75 uM
  perc_inhibition_mean: -9.684%
[7]; concentration 99.5 uM
  perc_inhibition_mean: -29.716%

## Cc1c([C@@H](C)Nc2ncnc3[nH]ccc23)cnn1-c1ccccc1 [ASAP-0000476]
[6]; [19]
  inhibition at 49.75 µM: 28.1%
  inhibition at 99.5 µM: 41.7%
[7]; concentration 49.75 uM
  perc_inhibition_mean: 28.129%
[7]; concentration 99.5 uM
  perc_inhibition_mean: 41.664%

## CC(C)[C@H]1N(c2ncnc3[nH]ccc23)CC12CCOCC2 [ASAP-0000477]
[6]; [20]
  inhibition at 49.75 µM: 27.6%
  inhibition at 99.5 µM: 48%
[7]; concentration 49.75 uM
  perc_inhibition_mean: 27.65%
[7]; concentration 99.5 uM
  perc_inhibition_mean: 47.993%

## CC(C)Cn1cc([C@H]2N(c3ncnc4[nH]ccc34)CC23CCOCC3)cn1 [ASAP-0000478]
[6]; [21]
  inhibition at 49.75 µM: -0.591%
  inhibition at 99.5 µM: -4.66%
[7]; concentration 49.75 uM
  perc_inhibition_mean: -0.591%
[7]; concentration 99.5 uM
  perc_inhibition_mean: -4.664%

## CC(C)[C@@H]1C(=O)NCCN1c1ncnc2[nH]ccc12 [ASAP-0000479]
[6]; [22]
  inhibition at 49.75 µM: 61.4%
  inhibition at 99.5 µM: 80.7%
[7]; concentration 49.75 uM
  perc_inhibition_mean: 61.35%
[7]; concentration 99.5 uM
  perc_inhibition_mean: 80.665%

## CC(C)[C@@H](CO)[C@@H](Nc1ncnc2[nH]ccc12)C(C)C [ASAP-0000480]
[6]; [23]
  inhibition at 49.75 µM: 6.65%
  inhibition at 99.5 µM: 13.1%
[7]; concentration 49.75 uM
  perc_inhibition_mean: 6.651%
[7]; concentration 99.5 uM
  perc_inhibition_mean: 13.057%

## CC(C)[C@@H](CCN(C)C(=O)C1CCc2ccccc2CC1)Nc1ncnc2[nH]ccc12 [ASAP-0000481]
[6]; [24]
  inhibition at 49.75 µM: -5.62%
  inhibition at 99.5 µM: -10.9%
[7]; concentration 49.75 uM
  perc_inhibition_mean: -5.62%
[7]; concentration 99.5 uM
  perc_inhibition_mean: -10.916%

## CC(C)[C@@H](Nc1ncnc2[nH]ccc12)C(=O)N(C)Cc1nnc2n1CCC2 [ASAP-0000482]
[6]; [25]
  inhibition at 49.75 µM: -8.89%
  inhibition at 99.5 µM: -6.14%
[7]; concentration 49.75 uM
  perc_inhibition_mean: -8.89%
[7]; concentration 99.5 uM
  perc_inhibition_mean: -6.138%

## CC(C)C(Nc1ncnc2[nH]ccc12)c1ccc2c(n1)OCCO2 (stereo not drawn) [ASAP-0008270]
[2]
  logd: 2.8

## CC(C)[C@@H](Nc1ncnc2[nH]ccc12)c1ccc2c(c1)OCCO2 [ASAP-0008279]
[2]; In vitro LogD
  logd: 3.0
